Experimental data: article PMC9732823, “Discovery of Dual Aβ/Tau Inhibitors and Evaluation of Their Therapeutic Effect on a Drosophila Model of Alzheimer’s Disease” (ACS Chemical Neuroscience, 2022)

Key:
PAMPA-BBB assay = settings: for Papp: pH 7.4; for BBB permeability prediction: PAMPA-BBB
Excerpt: Thus, to reduce attrition in the development process, the evaluation of BBB penetration at a very early drug discovery stage is of crucial importance. In light of this, the ability of the previously selected compounds to cross the BBB was predicted by a parallel artificial membrane permeability assay (PAMPA)-BBB,[41] a high-throughput technique widely used as an indicator of a molecule’s passive diffusion through the BBB. Six commercially available drugs were used to validate the assay.
PAMPA (the parallel artificial membrane permeability assay) is a high-throughput screening tool applicable for the prediction of the passive transport of potential drugs across the BBB.[41] In this study, it has been used as a non-cell-based in vitro assay carried out in a coated 96-well membrane filter. The filter membrane of the donor plate was coated with PBL (Polar Brain Lipid, Avanti) in dodecane (4 μL of 20 mg/mL PBL in dodecane) and the acceptor well was filled with 300 μL of phosphate buffer saline, (PBS pH 7.4; VA). The tested compounds were dissolved first in DMSO and then diluted with PBS pH 7.4 to reach the final concentrations of 50–500 μM in the donor well. […] Then, 300 μL of the donor solution (VD) was added to the donor wells and the donor filter plate was carefully put on the acceptor plate so that the coated membrane was “in touch” with both donor solution and acceptor buffer. In principle, the test compound diffuses from the donor well through the polar brain lipid membrane (area = 0.28 cm^2) to the acceptor well. The concentrations of the tested compound in both donor and the acceptor wells were assessed after 3, 4, 5, and 6 h of incubation in quadruplicate using a UV plate reader, Synergy HT (Biotek) at the maximum absorption wavelength of each compound (n=3). In addition to that, solution of the theoretical compound concentration, simulating the equilibrium state established if the membrane were ideally permeable, was prepared and assessed as well. The concentrations of the compounds in the donor and acceptor wells and the equilibrium concentration were calculated from the standard curve and expressed as the permeability (Pe) according to the equation[41] [drawing 1] where [drawing 2]

Tau protein = target: T1, Tau protein (Homo sapiens, UniProt P10636); assay: Inhibition of Tau aggregation in intact E. coli cells overexpressing Tau (ThS fluorescence); type: cell-based, Escherichia coli; settings: for % inhibition Tau aggregation @ 10 μM: intact E. coli cells, compound 10 μM, mean ± SEM of four independent experiments; for inhibition at 10 µM: read-out: % inhibition Tau aggregation @ 10 μM, intact E. coli cells, compound 10 μM, mean ± SEM of four independent experiments
T1 construct: expressed in transfected cells; host or cells: Escherichia coli BL21 (DE3) with pTARA and pRKT42
Excerpt: (§1) As it would have been labor-intensive and expensive to screen such a number of compounds in two separate antiaggregating studies using recombinant Aβ and Tau, we turned our attention to a simple model of protein aggregation, namely, the intact Escherichia coli (E. coli) cells overexpressing Aβ42 and Tau proteins.[28],[29] Building on the fact that inclusion bodies produced by overexpression of these proteins in E. coli mainly consist of fibrillar aggregates, this simple screening method uses bacteria as an in vivo reservoir for tracking the inhibition of amyloid-type protein aggregation in real time, using the amyloid dye thioflavin S (ThS). Of note, this screening has already been used for the evaluation of libraries of antiaggregating compounds.[28]−[38]
E. coli BL21 (DE3) competent cells were transformed with pTARA containing the RNA-polymerase gen of the T7 phage (T7RP) under the control of the promoter PBAD. E. coli BL21 (DE3) with pTARA competent cells were transformed with the pRKT42 vector encoding four repeats of Tau protein in two inserts. For overnight culture preparation, 10 mL of M9 medium containing 0.5% of glucose, 100 μg·mL^–1 ampicillin, and 12.5 μg·mL^–1 chloramphenicol were inoculated with a colony of BL21 (DE3) bearing the plasmids to be expressed at 37 °C. For expression of Tau protein, the required volume of overnight culture to obtain 1:500 dilution was added to fresh M9 minimal medium containing 0.5% of glucose, 50 μg·mL^–1 ampicillin, 12.5 μg·mL^–1 chloramphenicol, and 25 μM ThS. The bacterial culture was grown at 37 °C and 250 rpm. When the cell density reached ABS600 nm= 0.6, an amount of 980 μL of culture was transferred into Eppendorf tubes of 1.5 mL with 10 μL of each compound to be tested in DMSO and 10 μL of arabinose at 25%. The final concentration of the drug was fixed at 10 μM. The samples were grown overnight at 37 °C and 1400 rpm using a thermomixer (Eppendorf, Hamburg, Germany). As the control of maximal amyloid presence, the same amount of DMSO without the drug was added to the sample. In parallel, noninduced samples (in the absence of arabinose) were also prepared and used as controls for the amyloid absence. In addition, the absorbance at 600 nm of the samples was checked to assess the potential intrinsic toxicity of the compounds and to confirm the correct bacterial growth.
(§2) ThS (T1892) and other chemical reagents were purchased from Sigma (St. Louis, MO). ThS stock solution (25 mM) was prepared in double-distilled water purified through a Milli-Q system (Millipore). For the fluorescence assay, the ThS spectra were measured on an AMINCO-Bowman series 2 luminescence spectrophotometer (Aminco-Bowman AB2, SLM Aminco, Rochester, NY) from 460 to 600 nm at 25 °C using an excitation wavelength of 440 nm and slit widths of 4 nm. The emission at 485 nm (fluorescence peak of ThS in the presence of amyloids) was recorded. To normalize the ThS fluorescence as a function of the bacterial concentration, ABS600nm was obtained using a Shimadzu UV-2401 PC UV–Vis spectrophotometer (Shimadzu, Japan). Note that the fluorescence normalization was carried out considering as 100% the ThS fluorescence of the bacterial cells expressing the peptide or protein in the absence of the drug and 0% the ThS fluorescence of the bacterial cells nonexpressing the peptide or protein.

[1] = Compound stability in the PAMPA buffer solution; type: in vitro ADME; settings: after 6h, donor and acceptor wells
Excerpt: Table S1. Prediction of BBB penetration of the studied compounds expressed as Pe ± SEM (n=3)

[2] = tested on: cerebellar granule neurons (CGNs); assay: Neurotoxicity on primary cultures of cerebellar granule neurons (nuclei counting after Hoechst staining); settings: differentiated CGNs, 24 h, percentage of healthy nuclei on total nuclei, mean ± SEM of three experiments
Aβ42 = target: T2, Aβ42 (Homo sapiens, UniProt P05067); assay: Inhibition of Aβ42 aggregation in intact E. coli cells overexpressing Aβ42 (ThS fluorescence); type: cell-based, Escherichia coli; settings: for % inhibition Aβ42 aggregation @ 10 μM: intact E. coli cells, compound 10 μM, mean ± SEM of four independent experiments; for inhibition at 10 µM: read-out: % inhibition Aβ42 aggregation @ 10 μM, intact E. coli cells, compound 10 μM, mean ± SEM of four independent experiments
T2 construct: expressed in transfected cells; host or cells: Escherichia coli BL21 (DE3), pET28a
Excerpt: as §1
Escherichia coli competent cells BL21 (DE3) were transformed with the pET28a vector (Novagen, Inc., Madison, WI) carrying the DNA sequence of Aβ42. Because of the addition of the initiation codon ATG in front of both genes, the overexpressed peptide contains an additional methionine residue at its N terminus. For overnight culture preparation, an amount of 10 mL of M9 minimal medium containing 50 μg·mL^–1 kanamycin was inoculated with a colony of BL21 (DE3) bearing the plasmid to be expressed at 37 °C. For expression of the Aβ42 peptide, the required volume of overnight culture to obtain 1:500 dilution was added into fresh M9 minimal medium containing 50 μg·mL^–1 kanamycin and 250 μM ThS. The bacterial culture was grown at 37 °C and 250 rpm. When the cell density reached ABS600 nm = 0.6, an amount of 980 μL of culture was transferred into Eppendorf tubes of 1.5 mL with 10 μL of each compound to be tested in DMSO and 10 μL of isopropyl 1-thio-β-D-galactopyranoside (IPTG) at 100 mM. The final concentration of the drug was fixed at 10 μM. The samples were grown overnight at 37 °C and 1400 rpm using a thermomixer (Eppendorf, Hamburg, Germany). As the control of the amyloid presence (maximal amyloid presence), the same amount of DMSO without the drug was added to the sample. In parallel, noninduced samples (in the absence of IPTG) were also prepared and used as controls of the non-amyloid presence. In addition, the absorbance at 600 nm of the samples was checked to assess the potential intrinsic toxicity of the compounds and to confirm the correct bacterial growth.
as §2

[3] = PAMPA-BBB penetration estimation

T1 sequence (P10636 1-441 isoform P10636-8): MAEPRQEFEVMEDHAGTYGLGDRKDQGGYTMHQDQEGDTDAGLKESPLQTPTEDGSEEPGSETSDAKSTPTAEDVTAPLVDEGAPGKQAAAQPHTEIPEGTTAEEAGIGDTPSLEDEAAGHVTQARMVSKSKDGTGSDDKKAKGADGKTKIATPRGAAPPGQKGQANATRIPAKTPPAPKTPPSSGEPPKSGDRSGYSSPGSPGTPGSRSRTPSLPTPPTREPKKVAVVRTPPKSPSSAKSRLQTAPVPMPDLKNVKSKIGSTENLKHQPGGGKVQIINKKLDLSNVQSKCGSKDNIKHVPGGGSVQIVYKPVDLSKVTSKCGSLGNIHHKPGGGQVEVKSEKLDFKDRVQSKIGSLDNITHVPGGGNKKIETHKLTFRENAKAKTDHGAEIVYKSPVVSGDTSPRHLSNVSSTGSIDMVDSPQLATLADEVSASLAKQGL
T2 sequence (P05067 672-713 limits assumed): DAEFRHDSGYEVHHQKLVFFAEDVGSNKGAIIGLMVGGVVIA

CCOC(=O)CN1C(=O)S/C(=C\c2ccc(/C=C3\SC(=O)N(CC(=O)OCC)C3=O)cc2)C1=O [Compound 7, Diethyl 2,2′-((5Z,5′Z)-(1,4-phenylenebis(methanylylidene))bis(2,4-dioxothiazolidin-3-yl-5-ylidene))diacetate]
Papp (PAMPA-BBB assay; PAMPA): 11.4 ± 0.49 ×10⁻⁶ cm/s
BBB permeability prediction (PAMPA-BBB assay): predicted to passively diffuse across the BBB
CNS (+/-) (PAMPA-BBB assay; [3]): CNS + (CNS + (high BBB permeation predicted): Pe (×10-6 cm s-1) > 4.0)
% inhibition Tau aggregation @ 10 μM (Tau protein): 30.6 ± 3.6%
inhibition at 10 µM (Tau protein): 30%
degradation in the PAMPA buffer solution [1]: < 20%
% survival neurotoxicity @ 10 μM [2]: 90.1 ± 2.1%
% inhibition Aβ42 aggregation @ 10 μM (Aβ42): 40.7 ± 4.4%
inhibition at 10 µM (Aβ42): 40%

CCOC(=O)CN1C(=O)S/C(=C\c2ccc3[nH]c4ccc(/C=C5\SC(=O)N(CC(=O)OCC)C5=O)cc4c3c2)C1=O [Compound 10, Diethyl 2,2′-((5Z,5′Z)-((9H-carbazole-3,6-diyl)bis(methanylylidene))bis(2,4-dioxothiazolidin-3-yl-5-ylidene))diacetate]
Papp (PAMPA-BBB assay; PAMPA): 5.79 ± 1.16 ×10⁻⁶ cm/s
BBB permeability prediction (PAMPA-BBB assay): predicted to passively diffuse across the BBB
CNS (+/-) (PAMPA-BBB assay; [3]): CNS + (CNS + (high BBB permeation predicted): Pe (×10-6 cm s-1) > 4.0)
% inhibition Tau aggregation @ 10 μM (Tau protein): 37.7 ± 4.1%
inhibition at 10 µM (Tau protein): 30 to 40%
degradation in the PAMPA buffer solution [1]: < 20%
% survival neurotoxicity @ 10 μM [2]: 84.2 ± 6.3%
% inhibition Aβ42 aggregation @ 10 μM (Aβ42): 31.9 ± 3.0%
inhibition at 10 µM (Aβ42): 30 to 40%

O=C(O)CN1C(=O)S/C(=C\c2ccc3[nH]c4ccc(/C=C5\SC(=O)N(CC(=O)O)C5=O)cc4c3c2)C1=O [Compound 16, 2,2′-((5Z,5′Z)-((9H^–Carbazole-3,6-diyl)bis(methanylylidene))bis(2,4-dioxothiazolidin-3-yl-5-ylidene))diacetic acid]
Papp (PAMPA-BBB assay; PAMPA): 0.55 ± 0.12 ×10⁻⁶ cm/s
% inhibition Tau aggregation @ 10 μM (Tau protein): 37.9 ± 3.5%
inhibition at 10 µM (Tau protein): 30 to 40%
% survival neurotoxicity @ 10 μM [2]: 90.0 ± 2.8%
% inhibition Aβ42 aggregation @ 10 μM (Aβ42): 32.1 ± 3.1%
inhibition at 10 µM (Aβ42): 30 to 40%

CO/N=C(\C(=O)N[C@@H]1C(=O)N2C(C(=O)O)=C(COC(N)=O)CS[C@H]12)c1ccco1 [Cefuroxime, reference compound]
CNS (+/-) (PAMPA-BBB assay; [3]): CNS - (CNS - (low BBB permeation predicted): Pe (×10-6 cm s-1) < 2.0)

CCOC(=O)CN1C(=O)S/C(=C\c2ccc3c(c2)C(C)(C)c2cc(/C=C4\SC(=O)N(CC(=O)OCC)C4=O)ccc2-3)C1=O [Compound 11, Diethyl 2,2′-((5Z,5′Z)-((9,9-dimethyl-9H-fluorene-2,7-diyl)bis(methanylylidene))bis(2,4-dioxothiazolidin-3-yl-5-ylidene))diacetate]
inhibition at 10 µM (Tau protein): 33.1 ± 4.5%
% survival neurotoxicity @ 10 μM [2]: 85.8 ± 6.9%
inhibition at 10 µM (Aβ42): 17.5 ± 4.5%

CCN(C)C(=O)Oc1cccc([C@H](C)N(C)C)c1 [Rivastigmine, reference compound]
CNS (+/-) (PAMPA-BBB assay; PAMPA): CNS + (key: CNS + (high BBB permeation predicted): Pe (×10-6 cm s-1) > 4.0; CNS - (low BBB permeation predicted): Pe (×10-6 cm s-1) < 2.0; CNS +/- (uncertain BBB permeation): Pe (×10-6 cm s-1) from 4.0 to 2.0)

O=C1NC(=O)/C(=C/c2ccc(-c3ccc(/C=C4\SC(=O)NC4=O)s3)s2)S1 [Compound 6, (5Z,5′Z)-5,5′-([2,2′-Bithiophene]-5,5′-diylbis(methanylylidene))bis(thiazolidine-2,4-dione)]
% inhibition Tau aggregation @ 10 μM (Tau protein): 19.4 ± 3.9%
inhibition at 10 µM (Tau protein): < 20%
% survival neurotoxicity @ 10 μM [2]: 89.9 ± 1.2%
inhibition at 10 µM (Aβ42): 42.4 ± 4.5%

CC1(C)c2cc(/C=C3\SC(=O)N(CC(=O)O)C3=O)ccc2-c2ccc(/C=C3\SC(=O)N(CC(=O)O)C3=O)cc21 [Compound 17, 2,2′-((5Z,5′Z)-((9,9-Dimethyl-9H-fluorene-2,7-diyl)bis(methanylylidene))bis(2,4-dioxothiazolidin-3-yl-5-ylidene))diacetic acid]
Papp (PAMPA-BBB assay; PAMPA): 0.88 ± 0.2 ×10⁻⁶ cm/s
inhibition at 10 µM (Tau protein): > 50%
% survival neurotoxicity @ 10 μM [2]: 89.3 ± 2.3%
inhibition at 10 µM (Aβ42): > 50%

O=C1NC(=O)/C(=C/c2ccc(/C=C3\SC(=O)NC3=O)cc2)S1 [Compound 1, (5Z,5′Z)-5,5′-(1,4-Phenylenebis(methanylylidene))bis(thiazolidine-2,4-dione)]
inhibition at 10 µM (Tau protein): 19.4 ± 3.6%
% survival neurotoxicity @ 10 μM [2]: 77.6 ± 6.1%
inhibition at 10 µM (Aβ42): 25.4 ± 1.9%

CN(C)CCN1C(=O)S/C(=C\c2ccc(/C=C3\SC(=O)N(CCN(C)C)C3=O)cc2)C1=O [Compound 19, (5Z,5′Z)-5,5′-(1,4-Phenylenebis(methanylylidene))bis(3-(2-(dimethylamino)ethyl)thiazolidine-2,4-dione)]
inhibition at 10 µM (Tau protein): 19.4 ± 3.6%
% survival neurotoxicity @ 10 μM [2]: 89.4 ± 2.0%
inhibition at 10 µM (Aβ42): 8.1 ± 4.4%
